Legend:
Format in all cases: functional
Bacteroides fragilis [1] = experiment: Antimicrobial activity against carbapenemase-producing Bacteroides fragilis GAI 30079 by agar dilution method in presence of 5% laked sheep blood
Bacteroides fragilis [2] = experiment: Antimicrobial activity against carbapenemase-producing Bacteroides fragilis GAI 30144 by agar dilution method in presence of 5% laked sheep blood
Phocaeicola vulgatus = experiment: Antimicrobial activity against Bacteroides vulgatus GAI 0673 by agar dilution method in presence of 5% laked sheep blood
[3] = test system: Bacteroides thetaiotaomicron; experiment: Antimicrobial activity against Bacteroides thetaiotaomicron ATCC 29741 by agar dilution method in presence of 5% laked sheep blood
Bacteroides uniformis = experiment: Antimicrobial activity against Bacteroides uniformis ATCC 8492 by agar dilution method in presence of 5% laked sheep blood
[4] = test system: Bacteroides eggerthii DSM 20697; experiment: Antimicrobial activity against Bacteroides eggerthii ATCC 27754 by agar dilution method in presence of 5% laked sheep blood
Campylobacter gracilis = experiment: Antimicrobial activity against Campylobacter gracilis JCM 8538 by agar dilution method in presence of 5% laked sheep blood
[5] = test system: Sutterella wadsworthensis; experiment: Antimicrobial activity against Sutterella wadsworthensis ATCC 51579 by agar dilution method in presence of 5% laked sheep blood
Prevotella bivia = experiment: Antimicrobial activity against Prevotella bivia ATCC 29303 by agar dilution method in presence of 5% laked sheep blood; details: DSM 20514
Prevotella buccae = experiment: Antimicrobial activity against Prevotella buccae ATCC 33574 by agar dilution method in presence of 5% laked sheep blood; details: Segatella buccae
Prevotella corporis = experiment: Antimicrobial activity against Prevotella corporis GAI 91000 by agar dilution method in presence of 5% laked sheep blood
Prevotella intermedia = experiment: Antimicrobial activity against Prevotella intermedia ATCC 25611 by agar dilution method in presence of 5% laked sheep blood
Prevotella denticola = experiment: Antimicrobial activity against Prevotella denticola GAI 5490 by agar dilution method in presence of 5% laked sheep blood
Prevotella oris = experiment: Antimicrobial activity against Prevotella oris ATCC 33573 by agar dilution method in presence of 5% laked sheep blood; details: Segatella oris
[6] = test system: Porphyromonas asaccharolytica; experiment: Antimicrobial activity against Porphyromonas asaccharolyticus ATCC 25260 by agar dilution method in presence of 5% laked sheep blood; details: DSM 20707
[7] = test system: Fusobacterium necrophorum; experiment: Antimicrobial activity against Fusobacterium necrophorum ATCC 25286 by agar dilution method in presence of 5% laked sheep blood
Bilophila wadsworthia = experiment: Antimicrobial activity against Bilophila wadsworthia WAL 7959 by agar dilution method in presence of 5% laked sheep blood
[8] = test system: Desulfovibrio desulfuricans; experiment: Antimicrobial activity against Desulfovibrio desulfuricans ATCC 29577 by agar dilution method in presence of 5% laked sheep blood
Capnocytophaga ochracea = experiment: Antimicrobial activity against Capnocytophaga ochracea GAI 5586 by agar dilution method in presence of 5% laked sheep blood
Veillonella parvula = experiment: Antimicrobial activity against Veillonella parvula ATCC 10790 by agar dilution method in presence of 5% laked sheep blood
Anaerococcus prevotii = experiment: Antimicrobial activity against Anaerococcus prevotii ATCC 9321 by agar dilution method in presence of 5% laked sheep blood
Atopobium parvulum = experiment: Antimicrobial activity against Atopobium parvulum VPI 0546 by agar dilution method in presence of 5% laked sheep blood; details: Lancefieldella parvula
[9] = Antimicrobial activity against Finegoldia magna ATCC 29328 by agar dilution method in presence of 5% laked sheep blood
Parvimonas micra = experiment: Antimicrobial activity against Parvimonas micra VPI 5464-1 by agar dilution method in presence of 5% laked sheep blood
Peptoniphilus indolicus = experiment: Antimicrobial activity against Peptoniphilus indolicus GAI 0915 by agar dilution method in presence of 5% laked sheep blood
[10] = test system: Staphylococcus saccharolyticus; experiment: Antimicrobial activity against Staphylococcus saccharolyticus ATCC 14953 by agar dilution method in presence of 5% laked sheep blood
[11] = test system: Streptococcus constellatus; experiment: Antimicrobial activity against Streptococcus constellatus ATCC 27923 by agar dilution method in presence of 5% laked sheep blood
Clostridioides difficile = experiment: Antimicrobial activity against Clostridium difficile GAI 10029 by agar dilution method in presence of 5% laked sheep blood
Clostridium septicum = experiment: Antimicrobial activity against Clostridium septicum ATCC 12464 by agar dilution method in presence of 5% laked sheep blood
[12] = test system: Paeniclostridium sordellii; experiment: Antimicrobial activity against Clostridium sordellii ATCC 9714 by agar dilution method in presence of 5% laked sheep blood; details: Paraclostridium sordellii
[13] = Antimicrobial activity against Bifidobacterium adolescentis ATCC 15703 by agar dilution method in presence of 5% laked sheep blood
Bifidobacterium bifidum = experiment: Antimicrobial activity against Bifidobacterium bifidum JCM 1255 by agar dilution method in presence of 5% laked sheep blood
Bifidobacterium breve = experiment: Antimicrobial activity against Bifidobacterium breve ATCC 15700 by agar dilution method in presence of 5% laked sheep blood
[14] = Antimicrobial activity against Bifidobacterium longum subsp. longum ATCC 15707 by agar dilution method in presence of 5% laked sheep blood
[15] = test system: Bifidobacterium pseudolongum; experiment: Antimicrobial activity against Bifidobacterium pseudolongum ATCC 25526 by agar dilution method in presence of 5% laked sheep blood
Eggerthella lenta = experiment: Antimicrobial activity against Eggerthella lenta ATCC 25559 by agar dilution method in presence of 5% laked sheep blood
Cutibacterium acnes = experiment: Antimicrobial activity against Propionibacterium acnes ATCC 11828 by agar dilution method in presence of 5% laked sheep blood
[16] = test system: Propionibacterium granulosum; experiment: Antimicrobial activity against Propionibacterium granulosum ATCC 25564 by agar dilution method in presence of 5% laked sheep blood; details: Cutibacterium granulosum
Lacticaseibacillus casei = experiment: Antimicrobial activity against Lactobacillus casei subsp. casei JCM 1134 by agar dilution method in presence of 5% laked sheep blood
[17] = test system: Limosilactobacillus fermentum; experiment: Antimicrobial activity against Lactobacillus fermentum JCM 1173 by agar dilution method in presence of 5% laked sheep blood
[18] = test system: Limosilactobacillus reuteri; experiment: Antimicrobial activity against Lactobacillus reuteri JCM 1112 by agar dilution method in presence of 5% laked sheep blood
Lactobacillus salivarius = experiment: Antimicrobial activity against Lactobacillus salivarius subsp. salivarius JCM 1231 by agar dilution method in presence of 5% laked sheep blood; details: Ligilactobacillus salivarius
Bacteroides fragilis [19] = experiment: Antimicrobial activity against Bacteroides fragilis GAI 5562 by agar dilution method in presence of 5% laked sheep blood
Bacteroides fragilis [20] = experiment: Antimicrobial activity against Bacteroides fragilis NCTC 10581 by agar dilution method in presence of 5% laked sheep blood
Bacteroides fragilis [21] = experiment: Antimicrobial activity against Bacteroides fragilis GAI 0558 by agar dilution method in presence of 5% laked sheep blood
Bacteroides fragilis [22] = experiment: Antimicrobial activity against Bacteroides fragilis GAI 10150 by agar dilution method in presence of 5% laked sheep blood

SMILES: CC(=N)N1CC[C@H](SC2=C(C(=O)O)N3C(=O)[C@H]([C@@H](C)O)[C@H]3C2)C1
- MIC (Bacteroides fragilis [1]): > 128 µg/mL
- MIC (Bacteroides fragilis [2]): > 128 µg/mL
- MIC (Phocaeicola vulgatus): 0.125 µg/mL
- MIC [3]: 0.5 µg/mL
- MIC (Bacteroides uniformis): 0.25 µg/mL
- MIC [4]: 0.25 µg/mL
- MIC (Campylobacter gracilis): 0.25 µg/mL
- MIC [5]: 0.5 µg/mL
- MIC (Prevotella bivia): 0.5 µg/mL
- MIC (Prevotella buccae): 0.25 µg/mL
- MIC (Prevotella corporis): 0.125 µg/mL
- MIC (Prevotella intermedia): 0.06 µg/mL
- MIC (Prevotella denticola): 0.06 µg/mL
- MIC (Prevotella oris): 0.06 µg/mL
- MIC [6]: 0.03 µg/mL
- MIC [7]: 0.125 µg/mL
- MIC (Bilophila wadsworthia): 0.5 µg/mL
- MIC [8]: 0.5 µg/mL
- MIC (Capnocytophaga ochracea): 0.125 µg/mL
- MIC (Veillonella parvula): 0.125 µg/mL
- MIC (Anaerococcus prevotii): 0.125 µg/mL
- MIC (Atopobium parvulum): 0.25 µg/mL
- MIC [9]: 0.25 µg/mL
- MIC (Parvimonas micra): 0.125 µg/mL
- MIC (Peptoniphilus indolicus): 0.125 µg/mL
- MIC [10]: 0.03 µg/mL
- MIC [11]: 0.25 µg/mL
- MIC (Clostridioides difficile): 4 µg/mL
- MIC (Clostridium septicum): ≤ 0.015 µg/mL
- MIC [12]: 0.03 µg/mL
- MIC [13]: 0.125 µg/mL
- MIC (Bifidobacterium bifidum): 0.06 µg/mL
- MIC (Bifidobacterium breve): 0.5 µg/mL
- MIC [14]: 1 µg/mL
- MIC [15]: 0.25 µg/mL
- MIC (Eggerthella lenta): 2 µg/mL
- MIC (Cutibacterium acnes): 0.125 µg/mL
- MIC [16]: 0.125 µg/mL
- MIC (Lacticaseibacillus casei): 0.5 µg/mL
- MIC [17]: 0.03 µg/mL
- MIC [18]: 0.03 µg/mL
- MIC (Lactobacillus salivarius): 0.25 µg/mL
- MIC (Bacteroides fragilis [19]): 0.25 µg/mL
- MIC (Bacteroides fragilis [20]): 0.25 µg/mL
- MIC (Bacteroides fragilis [21]): 0.5 µg/mL
- MIC (Bacteroides fragilis [22]): 8 µg/mL

SMILES: CCC[C@@H]1C[C@@H](C(=O)N[C@@H]([C@H]2O[C@H](SC)[C@H](O)[C@@H](O)[C@H]2O)[C@H](C)Cl)N(C)C1 [CLINDAMYCIN]
- MIC (Bacteroides fragilis [1]): > 128 µg/mL
- MIC (Bacteroides fragilis [2]): 2 µg/mL
- MIC (Phocaeicola vulgatus): 0.06 µg/mL
- MIC [3]: 4 µg/mL
- MIC (Bacteroides uniformis): ≤ 0.03 µg/mL
- MIC [4]: ≤ 0.03 µg/mL
- MIC (Campylobacter gracilis): 0.125 µg/mL
- MIC [5]: 16 µg/mL
- MIC (Prevotella bivia): ≤ 0.03 µg/mL
- MIC (Prevotella buccae): ≤ 0.03 µg/mL
- MIC (Prevotella corporis): ≤ 0.03 µg/mL
- MIC (Prevotella intermedia): ≤ 0.03 µg/mL
- MIC (Prevotella denticola): ≤ 0.03 µg/mL
- MIC (Prevotella oris): ≤ 0.03 µg/mL
- MIC [6]: ≤ 0.03 µg/mL
- MIC [7]: ≤ 0.03 µg/mL
- MIC (Bilophila wadsworthia): 0.5 µg/mL
- MIC [8]: 0.5 µg/mL
- MIC (Capnocytophaga ochracea): ≤ 0.03 µg/mL
- MIC (Veillonella parvula): ≤ 0.03 µg/mL
- MIC (Anaerococcus prevotii): 0.125 µg/mL
- MIC (Atopobium parvulum): 1 µg/mL
- MIC [9]: 2 µg/mL
- MIC (Parvimonas micra): 0.25 µg/mL
- MIC (Peptoniphilus indolicus): 32 µg/mL
- MIC [10]: 0.125 µg/mL
- MIC [11]: 0.25 µg/mL
- MIC (Clostridioides difficile): > 128 µg/mL
- MIC (Clostridium septicum): ≤ 0.03 µg/mL
- MIC [12]: 1 µg/mL
- MIC [13]: ≤ 0.03 µg/mL
- MIC (Bifidobacterium bifidum): ≤ 0.03 µg/mL
- MIC (Bifidobacterium breve): ≤ 0.03 µg/mL
- MIC [14]: ≤ 0.03 µg/mL
- MIC [15]: ≤ 0.03 µg/mL
- MIC (Eggerthella lenta): 0.25 µg/mL
- MIC (Cutibacterium acnes): 0.125 µg/mL
- MIC [16]: ≤ 0.03 µg/mL
- MIC (Lacticaseibacillus casei): 2 µg/mL
- MIC [17]: ≤ 0.03 µg/mL
- MIC [18]: ≤ 0.03 µg/mL
- MIC (Lactobacillus salivarius): 0.06 µg/mL
- MIC (Bacteroides fragilis [19]): 0.5 µg/mL
- MIC (Bacteroides fragilis [20]): ≤ 0.03 µg/mL
- MIC (Bacteroides fragilis [21]): 0.5 µg/mL
- MIC (Bacteroides fragilis [22]): 0.5 µg/mL

— ChEMBL document CHEMBL1275576, “In vitro activity of tomopenem (CS-023/RO4908463) against anaerobic bacteria” (Antimicrob Agents Chemother, 2009)
